# What was measured:
# [1] = Antimicrobial activity against New Delhi metallo-beta lactamase-1 and oxacillinase -181 producing Klebsiella pneumoniae 50531633 assessed as reduction in bacterial growth incubated for 48 hrs by microdilution method; assay type: functional
# [2] = system: HepG2; assay: Cytotoxicity against human HepG2 cells assessed as reduction in cell viability incubated for 24 hrs by colorimetric tetrazolium assay; assay type: functional, cell-based; details: HepG2, 24 h
# [3] = Antimicrobial activity against verona integron-encoded metallo-beta-lactamase -1 producing Klebsiella pneumoniae 50667959 assessed as reduction in bacterial growth incubated for 48 hrs by microdilution method; assay type: functional
# [4] = Antimicrobial activity against carbapenemase producing Klebsiella pneumoniae K47-25 assessed as reduction in bacterial growth incubated for 48 hrs by microdilution method; assay type: functional
# [5] = system: Escherichia coli; assay: Antimicrobial activity against New Delhi metallo-beta lactamase-1 producing Escherichia coli 50676002 assessed as reduction in bacterial growth incubated for 48 hrs by microdilution method; assay type: functional
# [6] = system: Enterococcus faecium; assay: Antimicrobial activity against extended spectrum-lactamase-carbapenemas producing Enterococcus faecium strain TUH.50-22 assessed as reduction in bacterial growth incubated for 48 hrs by microdilution method; assay type: functional
# [7] = Hemolytic activity in human erythrocytes incubated for 1 hr by microplate reader; assay type: functional, cell-based; details: erythrocyte
# [8] = system: Escherichia coli; assay: Antimicrobial activity against New Delhi metallo-beta lactamase-1 producing Escherichia coli 50739822 assessed as reduction in bacterial growth incubated for 48 hrs by microdilution method; assay type: functional
# [9] = system: Pseudomonas aeruginosa; assay: Antimicrobial activity against verona integron-encoded metallo-beta-lactamase-4 producing Pseudomonas aeruginosa K34-73 assessed as reduction in bacterial growth incubated for 48 hrs by microdilution method; assay type: functional
# [10] = system: Pseudomonas aeruginosa; assay: Antimicrobial activity against verona integron-encoded metallo-beta-lactamase-2 producing Pseudomonas aeruginosa K34-7 assessed as reduction in bacterial growth incubated for 48 hrs by microdilution method; assay type: functional
# [11] = system: Acinetobacter baumannii; assay: Antimicrobial activity against oxacillinase-23 producing Acinetobacter baumannii K44-35 assessed as reduction in bacterial growth incubated for 48 hrs by microdilution method; assay type: functional
# [12] = system: Staphylococcus aureus; assay: Antimicrobial activity against Staphylococcus aureus ATCC 9144 assessed as reduction in bacterial growth incubated for 48 hrs by microdilution susceptibility test; assay type: functional
# [13] = system: Enterococcus faecium; assay: Antimicrobial activity against extended spectrum-lactamase-carbapenemas producing Enterococcus faecium strain 50673722 assessed as reduction in bacterial growth incubated for 48 hrs by microdilution method; assay type: functional
# [14] = system: Staphylococcus aureus; assay: Antimicrobial activity against extended spectrum-lactamase-carbapenemas producing Staphylococcus aureus strain WIS assessed as reduction in bacterial growth incubated for 48 hrs by microdilution method; assay type: functional
# [15] = system: Pseudomonas aeruginosa; assay: Antimicrobial activity against Pseudomonas aeruginosa PAO1 assessed as reduction in bacterial growth incubated for 48 hrs by microdilution susceptibility test; assay type: functional
# [16] = system: Enterococcus faecium; assay: Antimicrobial activity against extended spectrum-lactamase-carbapenemas producing Enterococcus faecium strain 50758899 assessed as reduction in bacterial growth incubated for 48 hrs by microdilution method; assay type: functional
# [17] = system: Acinetobacter baumannii; assay: Antimicrobial activity against oxacillinase-58 producing Acinetobacter baumannii K12-21 assessed as reduction in bacterial growth incubated for 48 hrs by microdilution method; assay type: functional
# [18] = system: Escherichia coli; assay: Antimicrobial activity against verona integron-encoded metallo-beta-lactamase-29-producing Escherichia coli 50639799 assessed as reduction in bacterial growth incubated for 48 hrs by microdilution method; assay type: functional
# [19] = system: Escherichia coli; assay: Antimicrobial activity against oxacillinase-producing Escherichia coli 50579417 assessed as reduction in bacterial growth incubated for 48 hrs by microdilution method; assay type: functional
# [20] = system: Pseudomonas aeruginosa; assay: Antimicrobial activity against New Delhi metallo-beta lactamase-1 producing Pseudomonas aeruginosa 50692172 assessed as reduction in bacterial growth incubated for 48 hrs by microdilution method; assay type: functional
# [21] = system: Staphylococcus aureus; assay: Antimicrobial activity against extended spectrum-lactamase-carbapenemas producing Staphylococcus aureus NCTC 10442 assessed as reduction in bacterial growth incubated for 48 hrs by microdilution method; assay type: functional
# [22] = system: Acinetobacter baumannii; assay: Antimicrobial activity against oxacillinase-24 producing Acinetobacter baumannii K55-13 assessed as reduction in bacterial growth incubated for 48 hrs by microdilution method; assay type: functional
# [23] = system: Enterococcus faecium; assay: Antimicrobial activity against extended spectrum-lactamase-carbapenemas producing Enterococcus faecium strain K36-18 assessed as reduction in bacterial growth incubated for 48 hrs by microdilution method; assay type: functional
# [24] = system: Pseudomonas aeruginosa; assay: Antimicrobial activity against verona integron-encoded metallo-beta-lactamase producing Pseudomonas aeruginosa 50692520 assessed as reduction in bacterial growth incubated for 48 hrs by microdilution method; assay type: functional
# [25] = system: Escherichia coli; assay: Antimicrobial activity against Escherichia coli ATCC 25922 assessed as reduction in bacterial growth incubated for 48 hrs by microdilution susceptibility test; assay type: functional
# [26] = system: Staphylococcus aureus; assay: Antimicrobial activity against extended spectrum-lactamase-carbapenemas producing Staphylococcus aureus strain 85/2082 assessed as reduction in bacterial growth incubated for 48 hrs by microdilution method; assay type: functional
# [27] = Antimicrobial activity against New Delhi metallo-beta lactamase-1 Klebsiella pneumoniae K66-45 assessed as reduction in bacterial growth incubated for 48 hrs by microdilution method; assay type: functional
# [28] = system: Acinetobacter baumannii; assay: Antimicrobial activity against oxacillinase-23 producing Acinetobacter baumannii K47-42 assessed as reduction in bacterial growth incubated for 48 hrs by microdilution method; assay type: functional
# [29] = system: Staphylococcus aureus; assay: Antimicrobial activity against extended spectrum-lactamase-carbapenemas producing Staphylococcus aureus N315 assessed as reduction in bacterial growth incubated for 48 hrs by microdilution method; assay type: functional
# [30] = system: Acinetobacter baumannii; assay: Antimicrobial activity against oxacillinase-23 producing Acinetobacter baumannii K63-58 assessed as reduction in bacterial growth incubated for 48 hrs by microdilution method; assay type: functional
# [31] = system: Pseudomonas aeruginosa; assay: Antimicrobial activity against imipenem-type carbapenemase-14 producing Pseudomonas aeruginosa K44-24 assessed as reduction in bacterial growth incubated for 48 hrs by microdilution method; assay type: functional
# [32] = system: MRC5; assay: Cytotoxicity against human MRC5 cells assessed as reduction in cell viability incubated for 24 hrs by colorimetric tetrazolium assay; assay type: functional, cell-based; details: MRC5, 24 h
# [33] = system: Corynebacterium glutamicum; assay: Antimicrobial activity against Corynebacterium glutamicum ATCC 13032 assessed as reduction in bacterial growth incubated for 48 hrs by microdilution susceptibility test; assay type: functional
# [34] = Antimicrobial activity against oxacillinase-245 producing Klebsiella pneumoniae 50625602 assessed as reduction in bacterial growth incubated for 48 hrs by microdilution method; assay type: functional
# [35] = system: Escherichia coli; assay: Antimicrobial activity against imipenem-type carbapenemase-26 producing Escherichia coli 50857972 assessed as reduction in bacterial growth incubated for 48 hrs by microdilution method; assay type: functional
# [36] = system: Staphylococcus aureus; assay: Antimicrobial activity against extended spectrum-lactamase-carbapenemas producing Staphylococcus aureus strain IHT 99040 assessed as reduction in bacterial growth incubated for 48 hrs by microdilution method; assay type: functional
# [37] = system: Enterococcus faecium; assay: Antimicrobial activity against extended spectrum-lactamase-carbapenemas producing Enterococcus faecium strain 50901530 assessed as reduction in bacterial growth incubated for 48 hrs by microdilution method; assay type: functional
Compound,MIC [1] [µg/mL],IC50 [2] [µg/mL],MIC [3] [µg/mL],MIC [4] [µg/mL],MIC [5] [µg/mL],MIC [6] [µg/mL],EC50 [7] [µg/mL],MIC [8] [µg/mL],MIC [9] [µg/mL],MIC [10] [µg/mL],MIC [11] [µg/mL],MIC [12] [µg/mL],MIC [13] [µg/mL],MIC [14] [µg/mL],MIC [15] [µg/mL],MIC [16] [µg/mL],MIC [17] [µg/mL],MIC [18] [µg/mL],MIC [19] [µg/mL],MIC [20] [µg/mL],further results
NCCCCN1C(=O)N(CCCCN)C(=O)C(Cc2ccc(F)c3ccccc23)(Cc2ccc(F)c3ccccc23)C1=O.O=C(O)C(F)(F)F.O=C(O)C(F)(F)F,16,5,32,> 32,16,4,160,16,32,32,32,4,8,8,8,8,32,16,16,16,MIC [21]: 8 µg/mL; MIC [22]: 32 µg/mL; MIC [23]: 8 µg/mL; MIC [24]: 16 µg/mL; MIC [25]: 16 µg/mL; MIC [26]: 4 µg/mL; MIC [27]: 32 µg/mL; MIC [28]: 32 µg/mL; MIC [29]: 8 µg/mL; MIC [30]: 16 µg/mL; MIC [31]: 32 µg/mL; IC50 [32]: 2 µg/mL; MIC [33]: 1 µg/mL; MIC [34]: 32 µg/mL; MIC [35]: 16 µg/mL; MIC [36]: 8 µg/mL; MIC [37]: 4 µg/mL
N=C(N)NCCCCN1C(=O)N(CCCCNC(=N)N)C(=O)C(Cc2ccc(C(F)(F)F)cc2)(Cc2ccc(C(F)(F)F)cc2)C1=O.O=C(O)C(F)(F)F.O=C(O)C(F)(F)F,> 32,104,> 32,> 32,32,32,> 449,32,> 32,> 32,> 32,2,32,4,64,> 32,> 32,16,32,> 32,MIC [21]: 4 µg/mL; MIC [22]: > 32 µg/mL; MIC [23]: 32 µg/mL; MIC [24]: > 32 µg/mL; MIC [25]: 8 µg/mL; MIC [26]: 4 µg/mL; MIC [27]: > 32 µg/mL; MIC [28]: > 32 µg/mL; MIC [29]: 4 µg/mL; MIC [30]: > 32 µg/mL; MIC [31]: > 32 µg/mL; IC50 [32]: 74 µg/mL; MIC [33]: 0.25 µg/mL; MIC [34]: > 32 µg/mL; MIC [35]: 16 µg/mL; MIC [36]: 8 µg/mL; MIC [37]: 8 µg/mL
N=C(N)NCCCCN1C(=O)N(CCCCNC(=N)N)C(=O)C(Cc2ccc3ccccc3c2)(Cc2ccc3ccccc3c2)C1=O.O=C(O)C(F)(F)F.O=C(O)C(F)(F)F,16,59,16,16,8,8,133,8,32,32,32,1,16,8,8,16,32,8,16,32,MIC [21]: 8 µg/mL; MIC [22]: 32 µg/mL; MIC [23]: 16 µg/mL; MIC [24]: 32 µg/mL; MIC [25]: 1 µg/mL; MIC [26]: 8 µg/mL; MIC [27]: 16 µg/mL; MIC [28]: 32 µg/mL; MIC [29]: 8 µg/mL; MIC [30]: 32 µg/mL; MIC [31]: 32 µg/mL; IC50 [32]: 30 µg/mL; MIC [33]: 0.25 µg/mL; MIC [34]: 16 µg/mL; MIC [35]: 8 µg/mL; MIC [36]: 8 µg/mL; MIC [37]: 8 µg/mL
NCCCCN1C(=O)N(CCCCN)C(=O)C(Cc2ccc(C(F)(F)F)cc2)(Cc2ccc(C(F)(F)F)cc2)C1=O.O=C(O)C(F)(F)F.O=C(O)C(F)(F)F,> 32,40,> 32,> 32,> 32,> 32,> 398,> 32,> 32,> 32,> 32,64,> 32,> 32,64,> 32,> 32,> 32,> 32,> 32,MIC [21]: > 32 µg/mL; MIC [22]: > 32 µg/mL; MIC [23]: > 32 µg/mL; MIC [24]: > 32 µg/mL; MIC [25]: 128 µg/mL; MIC [26]: > 32 µg/mL; MIC [27]: > 32 µg/mL; MIC [28]: > 32 µg/mL; MIC [29]: > 32 µg/mL; MIC [30]: > 32 µg/mL; MIC [31]: > 32 µg/mL; IC50 [32]: 16 µg/mL; MIC [33]: 4 µg/mL; MIC [34]: > 32 µg/mL; MIC [35]: > 32 µg/mL; MIC [36]: > 32 µg/mL; MIC [37]: > 32 µg/mL
